According to the NIST ThermoML archive (doi:10.1021/je049626l):
“And” between values parts separate entries of the source, which are not always exact repeats. Identical values can stand only once. Numbers after ± are expanded uncertainties.

Experiments:
[1] = Crystal; for Normal melting temperature: DTA
[2] = molar enthalpy of vaporization or sublimation; details: Liquid, DSC

In the case of `O=C(O)COc1ccc(Cl)cc1Cl` [2,4-dichlorophenoxyethanoic acid], the “vapor or sublimation pressure” value ([1]; 346 K) is reported as 8.48e-05 ± 2e-05 kPa, the “vapor or sublimation pressure” value ([1]; 348 K) is reported as 0.000157 ± 1.9e-05 kPa and the “vapor or sublimation pressure” value ([1]; 348.5 K) is reported as 0.000127 ± 3.3e-05 kPa. The “vapor or sublimation pressure” value ([1]; 351 K) was 0.00017 ± 4.6e-05 kPa, the “vapor or sublimation pressure” value ([1]; 351.5 K) was 0.000127 ± 2.5e-05 kPa and the “vapor or sublimation pressure” value ([1]; 352 K) was 0.000212 ± 4.5e-05 kPa. The “vapor or sublimation pressure” value ([1]; 353 K) was 0.000255 ± 2.8e-05 kPa and 0.000314 ± 3.3e-05 kPa, the “vapor or sublimation pressure” value ([1]; 354.5 K) was 0.000276 ± 4e-05 kPa and 0.000212 ± 3.6e-05 kPa and the “vapor or sublimation pressure” value ([1]; 357 K) was 0.000472 ± 0.0001 kPa. For the same molecule, the “vapor or sublimation pressure” value ([1]; 357.5 K) was 0.000382 ± 8.6e-05 kPa, the “vapor or sublimation pressure” value ([1]; 358 K) was 0.000318 ± 3.3e-05 kPa and the “vapor or sublimation pressure” value ([1]; 358.5 K) was 0.000382 ± 4.8e-05 kPa. For the same molecule, the “vapor or sublimation pressure” value ([1]; 360 K) was 0.000445 ± 5.1e-05 kPa and 0.000629 ± 7.4e-05 kPa, the “vapor or sublimation pressure” value ([1]; 360.5 K) was 0.000488 ± 7.2e-05 kPa and the “vapor or sublimation pressure” value ([1]; 361 K) was 0.000551 ± 7e-05 kPa. For the same molecule, the “vapor or sublimation pressure” value ([1]; 361.5 K) was 0.000573 ± 5.8e-05 kPa, the “vapor or sublimation pressure” value ([1]; 362.5 K) was 0.000573 ± 7.1e-05 kPa and the “vapor or sublimation pressure” value ([1]; 363 K) was 0.000721 ± 8.9e-05 kPa and 0.000679 ± 8.7e-05 kPa. The “vapor or sublimation pressure” value ([1]; 364.5 K) was 0.000806 ± 9.1e-05 kPa, the “vapor or sublimation pressure” value ([1]; 365.5 K) was 0.000933 ± 0.00011 kPa and 0.00126 ± 0.00028 kPa and the “vapor or sublimation pressure” value ([1]; 366 K) was 0.000976 ± 0.00011 kPa and 0.000848 ± 0.00012 kPa. For the same molecule, the “vapor or sublimation pressure” value ([1]; 369 K) was 0.00132 ± 0.00028 kPa and 0.0014 ± 0.00031 kPa and 0.0011 ± 0.00023 kPa, the “vapor or sublimation pressure” value ([1]; 370 K) was 0.00136 ± 0.0003 kPa and 0.00204 ± 0.00048 kPa and the “vapor or sublimation pressure” value ([1]; 370.5 K) was 0.00153 ± 0.00038 kPa. The “vapor or sublimation pressure” value ([1]; 371 K) was 0.0017 ± 0.00038 kPa, the “vapor or sublimation pressure” value ([1]; 373 K) was 0.00174 ± 0.00041 kPa and the “vapor or sublimation pressure” value ([1]; 374 K) was 0.00255 ± 0.00065 kPa. The “vapor or sublimation pressure” value ([1]; 375 K) was 0.00255 ± 0.00062 kPa and 0.00212 ± 0.0005 kPa, the “vapor or sublimation pressure” value ([1]; 375.5 K) was 0.00229 ± 0.00056 kPa and the “vapor or sublimation pressure” value ([1]; 377 K) was 0.00297 ± 0.00075 kPa. For the same molecule, the “vapor or sublimation pressure” value ([1]; 378 K) was 0.00293 ± 0.00074 kPa and 0.00481 ± 0.0013 kPa, the “vapor or sublimation pressure” value ([1]; 379 K) was 0.00361 ± 0.00094 kPa and the “vapor or sublimation pressure” value ([1]; 379.5 K) was 0.00344 ± 0.00088 kPa. For the same molecule, the “vapor or sublimation pressure” value ([1]; 380.5 K) was 0.00386 ± 0.001 kPa, the “vapor or sublimation pressure” value ([1]; 383.5 K) was 0.00509 ± 0.0015 kPa and the “vapor or sublimation pressure” value ([1]; 385 K) was 0.00594 ± 0.0018 kPa. For the same molecule, the “vapor or sublimation pressure” value ([1]; 386 K) was 0.00628 ± 0.0018 kPa, the “vapor or sublimation pressure” value ([1]; 387 K) was 0.0067 ± 0.0019 kPa and the Normal melting temperature [1] was 141.4 ± 0.5 °C. The molar enthalpy ([2]; 479.1 K) was 18.2 ± 0.956 kcal/mol, the molar enthalpy ([2]; 489.5 K) was 18.2 ± 1.43 kcal/mol and the molar enthalpy ([2]; 503.3 K) was 18.4 ± 1.2 kcal/mol.
In the case of `CC(Oc1ccc(Cl)cc1Cl)C(=O)O` (configuration not stated) [2-(2,4-dichlorophenoxy)propanoic acid], the “vapor or sublimation pressure” value ([1]; 343 K) is reported as 0.000157 ± 2.1e-05 kPa, the “vapor or sublimation pressure” value ([1]; 347 K) is reported as 0.000267 ± 3.5e-05 kPa and 0.000297 ± 3.7e-05 kPa and the “vapor or sublimation pressure” value ([1]; 352 K) is reported as 0.000551 ± 6e-05 kPa. For the same molecule, the “vapor or sublimation pressure” value ([1]; 353 K) was 0.000503 ± 5.9e-05 kPa, the “vapor or sublimation pressure” value ([1]; 356 K) was 0.000764 ± 8.4e-05 kPa and 0.000708 ± 7.9e-05 kPa and the “vapor or sublimation pressure” value ([1]; 358 K) was 0.000849 ± 8.8e-05 kPa. For the same molecule, the “vapor or sublimation pressure” value ([1]; 359 K) was 0.000912 ± 0.00014 kPa, the “vapor or sublimation pressure” value ([1]; 360 K) was 0.00126 ± 0.00028 kPa and the “vapor or sublimation pressure” value ([1]; 361 K) was 0.00126 ± 0.0003 kPa and 0.00153 ± 0.00036 kPa. The “vapor or sublimation pressure” value ([1]; 364 K) was 0.00223 ± 0.00054 kPa, the “vapor or sublimation pressure” value ([1]; 365 K) was 0.00208 ± 0.00049 kPa and the “vapor or sublimation pressure” value ([1]; 366 K) was 0.00252 ± 0.00066 kPa and 0.00339 ± 0.00089 kPa. For the same molecule, the “vapor or sublimation pressure” value ([1]; 368 K) was 0.00361 ± 0.00095 kPa, the “vapor or sublimation pressure” value ([1]; 370 K) was 0.00445 ± 0.0012 kPa and the “vapor or sublimation pressure” value ([1]; 371 K) was 0.00481 ± 0.0013 kPa. For the same molecule, the “vapor or sublimation pressure” value ([1]; 372 K) was 0.00472 ± 0.0013 kPa, the “vapor or sublimation pressure” value ([1]; 374 K) was 0.00721 ± 0.0021 kPa and the “vapor or sublimation pressure” value ([1]; 375 K) was 0.00692 ± 0.002 kPa. The Normal melting temperature [1] was 116.6 ± 0.5 °C, the molar enthalpy ([2]; 466.7 K) was 18.2 ± 1.43 kcal/mol and the molar enthalpy ([2]; 474 K) was 18.2 ± 1.43 kcal/mol. It also gave a molar enthalpy ([2]; 477.9 K) of 18.2 ± 1.2 kcal/mol.
For `O=C(O)CCCOc1ccc(Cl)cc1Cl` [4-(2,4-dichlorophenoxy)butanoic acid], the “vapor or sublimation pressure” value ([1]; 356.5 K) was 8.48e-05 ± 1.1e-05 kPa, the “vapor or sublimation pressure” value ([1]; 358 K) was 0.000106 ± 1.3e-05 kPa and the “vapor or sublimation pressure” value ([1]; 359.5 K) was 0.000127 ± 1.6e-05 kPa. The “vapor or sublimation pressure” value ([1]; 360 K) was 0.000148 ± 1.6e-05 kPa and 0.000157 ± 1.7e-05 kPa, the “vapor or sublimation pressure” value ([1]; 361 K) was 0.000148 ± 1.6e-05 kPa and the “vapor or sublimation pressure” value ([1]; 361.5 K) was 0.00017 ± 2.2e-05 kPa. For the same molecule, the “vapor or sublimation pressure” value ([1]; 362.5 K) was 0.000191 ± 2.3e-05 kPa, the “vapor or sublimation pressure” value ([1]; 363 K) was 0.000212 ± 2.4e-05 kPa and 0.000252 ± 2.7e-05 kPa and the “vapor or sublimation pressure” value ([1]; 363.5 K) was 0.000212 ± 2.3e-05 kPa and 0.000233 ± 2.5e-05 kPa. The “vapor or sublimation pressure” value ([1]; 365.5 K) was 0.000255 ± 2.9e-05 kPa, the “vapor or sublimation pressure” value ([1]; 366.5 K) was 0.000297 ± 4e-05 kPa and the “vapor or sublimation pressure” value ([1]; 367 K) was 0.000339 ± 5.2e-05 kPa. For the same molecule, the “vapor or sublimation pressure” value ([1]; 367.5 K) was 0.000377 ± 4.3e-05 kPa, the “vapor or sublimation pressure” value ([1]; 368 K) was 0.000382 ± 5e-05 kPa and the “vapor or sublimation pressure” value ([1]; 369 K) was 0.000467 ± 5.3e-05 kPa. The “vapor or sublimation pressure” value ([1]; 369.5 K) was 0.000445 ± 4.6e-05 kPa, the “vapor or sublimation pressure” value ([1]; 370 K) was 0.000488 ± 7.4e-05 kPa and 0.000467 ± 7.4e-05 kPa and the “vapor or sublimation pressure” value ([1]; 372 K) was 0.000721 ± 8.4e-05 kPa. The “vapor or sublimation pressure” value ([1]; 372.5 K) was 0.000679 ± 7.1e-05 kPa and 0.000636 ± 6.7e-05 kPa, the “vapor or sublimation pressure” value ([1]; 373 K) was 0.000764 ± 8.6e-05 kPa and 0.000786 ± 8.7e-05 kPa and the “vapor or sublimation pressure” value ([1]; 374 K) was 0.000806 ± 9.1e-05 kPa. The “vapor or sublimation pressure” value ([1]; 375 K) was 0.000933 ± 0.0001 kPa and 0.00106 ± 0.00022 kPa, the “vapor or sublimation pressure” value ([1]; 377 K) was 0.00106 ± 0.00022 kPa and 0.00123 ± 0.00026 kPa and the “vapor or sublimation pressure” value ([1]; 377.5 K) was 0.00123 ± 0.0003 kPa. For the same molecule, the “vapor or sublimation pressure” value ([1]; 378 K) was 0.00138 ± 0.0003 kPa and 0.0017 ± 0.00038 kPa, the “vapor or sublimation pressure” value ([1]; 380 K) was 0.00161 ± 0.00038 kPa and the “vapor or sublimation pressure” value ([1]; 381 K) was 0.00229 ± 0.00056 kPa. For the same molecule, the “vapor or sublimation pressure” value ([1]; 382 K) was 0.00221 ± 0.00055 kPa, the “vapor or sublimation pressure” value ([1]; 383 K) was 0.00297 ± 0.00076 kPa and 0.00283 ± 0.00072 kPa and the “vapor or sublimation pressure” value ([1]; 384 K) was 0.00297 ± 0.00075 kPa. For the same molecule, the “vapor or sublimation pressure” value ([1]; 386 K) was 0.00369 ± 0.00096 kPa and 0.0044 ± 0.0012 kPa, the “vapor or sublimation pressure” value ([1]; 386.5 K) was 0.00365 ± 0.001 kPa and the “vapor or sublimation pressure” value ([1]; 387 K) was 0.00458 ± 0.0013 kPa. The “vapor or sublimation pressure” value ([1]; 389 K) was 0.00539 ± 0.0015 kPa, the “vapor or sublimation pressure” value ([1]; 389.5 K) was 0.00526 ± 0.0015 kPa and the “vapor or sublimation pressure” value ([1]; 391 K) was 0.0067 ± 0.0019 kPa and 0.00666 ± 0.0019 kPa. For the same molecule, the Normal melting temperature [1] was 120.1 ± 0.5 °C, the molar enthalpy ([2]; 485.7 K) was 19.4 ± 2.15 kcal/mol and the molar enthalpy ([2]; 495 K) was 19.4 ± 2.39 kcal/mol. It also gave a molar enthalpy ([2]; 501.1 K) of 19.4 ± 2.15 kcal/mol.
For `COC(=O)CCCOc1ccc(Cl)cc1Cl` [butanoic acid, 4-(2,4-dichlorophenoxy)-, methyl ester], the Normal melting temperature [1] was 35.0 ± 0.5 °C, the molar enthalpy ([2]; 456 K) was 15.8 ± 1.43 kcal/mol and the molar enthalpy ([2]; 463.4 K) was 16.3 ± 1.67 kcal/mol. It also gave a molar enthalpy ([2]; 469.8 K) of 16.3 ± 1.43 kcal/mol.
`COC(=O)COc1ccc(Cl)cc1Cl` [methyl 2,4-dichlorophenoxyethanoate] gave a Normal melting temperature [1] of 37.6 ± 0.5 °C, a molar enthalpy ([2]; 415.2 K) of 14.1 ± 0.717 kcal/mol and a molar enthalpy ([2]; 424.4 K) of 14.3 ± 0.717 kcal/mol. The molar enthalpy ([2]; 430.4 K) was 14.3 ± 0.717 kcal/mol.
